Results on four substances are retold here after patent US10717757B2, “Ketolides having antibacterial activity” (BIOPHARMATI SA, priority 2016, dated 2020).

One may read the IC50 as the concentration that gives 50% inhibition.

The subject of series [1] is S. pneumoniae AUCC488, macrolide & penicillin resistant. As to the kind of experiment: Minimum inhibitory concentration (MIC), broth microdilution, AUCC488. Type of series: cell-based, Streptococcus pneumoniae. As for the experimental part: (§1) Protocols for Determining Minimum Inhibitory Concentration (MIC) of Test Compounds Against Streptococcus Pneumoniae Strains
(§2) The test strains are revived from frozen stock on blood agar plates and incubated at 35±2° C. for 18-20 hours in 5% CO2. Colonies are directly suspended from an overnight grown agar culture in CAMHB/saline and optical density adjusted to 0.5 McFarland turbidity standard (1-2×10^8 cfu/mL). Adjusted cultures are further diluted 1:100 using CAMHB such that after inoculation each well finally contains ˜5×10^5 cfu/mL. For broth dilution testing of Streptococcus species, CAMHB is supplemented with 2.5-5% v/v LHB. Colony counts of inoculum suspension is estimated by ten-fold serial dilutions and plating each dilution on agar plate. After incubation, the plates are observed for growth and microbial counts determined.
(§3) Compounds are weighed and dissolved in water/DMSO/other solvent to yield 1 mg/mL stock solution. Serial two-fold dilutions of the test compounds and reference antibiotics are prepared. 50 μL of the diluted drug solutions are dispensed in wells of microtiter trays (96 well).
(§4) To each of the wells of the microtiter tray, 50 μL of the diluted organism are inoculated to obtain a final inoculum density of ˜5×10^5 cfu/mL. Broth control, compound control and organism control wells are set up.
(§5) MIC testing are done in duplicates
(§6) MIC is defined as the lowest concentration of an antimicrobial agent that prevents visible growth of a microorganism in broth dilution susceptibility test.
(§7) After incubation period, growth of organism in the wells are detected by unaided eye facilitated by a viewing device. The amount of growth in the drug-containing wells are compared with the amount of growth in the organism-control wells.

The subject of series [2] is S. pneumoniae AUCC489, macrolide & penicillin resistant. As to the kind of experiment: Minimum inhibitory concentration (MIC), broth microdilution, AUCC489. In kind it is cell-based, Streptococcus pneumoniae. Here is the method:
as §1, §2, §3, §4, §5, §6, §7
On the technique in general: In broth dilution the organism is exposed to a series of concentrations in liquid medium.

Series [3] deals with CYP3A4 (Homo sapiens, UniProt P08684). As to the kind of experiment: Cytochrome P4503A4 inhibition assay, human liver microsomes, LC-MS/MS probe substrate method. The following applies: for IC50: read-out: IC50 CYP3A4 (midazolam), human liver microsomes 0.1 mg/mL, 5 μM midazolam, 10 min; for CYP3A4 inhibition in comparison with solithromycin and ketoconazole: summary of Table 1. On the technique in general: Liver microsomes are a subcellular fraction often used to study metabolism.
Protocol: Cytochrome P4503A4 Inhibition Assay for Determining IC50
The potential of the compound to inhibit CYP 3A4 was tested by the LC-MS/MS based probe substrate method using human liver microsomes. Midazolam or testosterone, which are metabolized to hydroxymidazolam or hydroxytestosterone by CYP 3A4, were the probe substrates used. […] NADPH was added as the cofactor. […] After incubation for ten minutes, the amount of 1-hydroxymidazolam or 6β-hydroxyltestosterone formed was determined by LC-MS/MS method as a measure of enzyme activity. Percent inhibition of enzyme activity was calculated based on the amount of metabolites (1-hydroxymidazolam or 6β-hydroxyltestosterone) formed for each sample relative to the basal control and plotted in a curve versus the compound concentration to obtain the IC50.

Series [4] deals with S. pneumoniae AUCC483, macrolide resistant & penicillin sensitive. The series is described as follows: Minimum inhibitory concentration (MIC), broth microdilution, AUCC483. Type of series: cell-based, Streptococcus pneumoniae. Here is the method:
as §1, §2, §3, §4, §5, §6, §7

Series [5] relates to S. pneumoniae ATCC 49619 (CLSI QC strain). The series is described as follows: Minimum inhibitory concentration (MIC), broth microdilution, QC strain. Type of series: cell-based, Streptococcus pneumoniae. The following applies: MIC in duplicates. As for the experimental part:
as §1, §2, §3, §4, §5, §6, §7

Series [6] has as its system S. pneumoniae AUCC479, macrolide & penicillin sensitive. The series is described as follows: Minimum inhibitory concentration (MIC), broth microdilution, AUCC479. Type of series: cell-based, Streptococcus pneumoniae. As for the experimental part:
as §1, §2, §3, §4, §5, §6, §7

CYP3A4, sequence (P08684 whole entry): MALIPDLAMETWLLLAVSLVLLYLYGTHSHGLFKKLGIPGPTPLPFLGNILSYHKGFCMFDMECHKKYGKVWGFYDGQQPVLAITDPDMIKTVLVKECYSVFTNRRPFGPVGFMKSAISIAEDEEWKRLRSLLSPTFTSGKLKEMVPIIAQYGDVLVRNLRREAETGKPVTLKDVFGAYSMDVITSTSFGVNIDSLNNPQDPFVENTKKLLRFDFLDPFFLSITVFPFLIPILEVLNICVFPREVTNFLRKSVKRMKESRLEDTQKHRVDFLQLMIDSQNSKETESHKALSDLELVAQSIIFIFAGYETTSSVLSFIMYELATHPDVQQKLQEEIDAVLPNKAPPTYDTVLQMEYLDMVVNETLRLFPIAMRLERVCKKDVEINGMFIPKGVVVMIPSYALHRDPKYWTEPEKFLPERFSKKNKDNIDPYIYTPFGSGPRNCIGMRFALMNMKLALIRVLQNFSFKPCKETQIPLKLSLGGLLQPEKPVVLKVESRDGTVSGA

For “(3aS,4R,7R,9R,10R,11R,13R,15R,15aR)-10-{[(2S,3R,4S,6R)-4-(dimethylamino)-3-hydroxy-6-methyloxan-2-yl]oxy}-4-ethyl-1-{2-[ethyl(methyl)amino]ethyl}-3a,7,9,11,13,15-hexamethyl-11-{[(2E)-3-(quinolin-3-yl)prop-2-en-1-yl]oxy}-tetradecahydro-1H-oxacyclotetradeca[4,3-d][1,3]oxazole-2,6,8,14-tetrone [Compound 13G]”, the “MIC Strep. Pneumoniae AUCC 488 penR, macR M or iMLS” value (from here on “MIC Strep. Pneumoniae AUCC 488 penR”) in series [1] was in the range of 0.5 to 1 µg/mL. In series [2], the “MIC Strep. Pneumoniae AUCC 489 penR, macR cMLS” value fell in the range of 0.5 to 1 µg/mL. In series [3], the IC50 is 8.8 µM; the “CYP3A4 inhibition in comparison with solithromycin and ketoconazole” value (shortened to “CYP3A4 inhibition in comparison”) is recorded as “lower IC50 inhibition of CYP3A4 inhibition”. The “MIC Strep. Pneumoniae AUCC 483 penS, macR cMLS” value in series [4] lay in the range of 1 to 2 µg/mL. Also, the “MIC Strep. Pneumoniae ATCC49619 QC strain” value in series [5] lay within 0.12 to 0.25 µg/mL. Moreover, the “MIC Strep. Pneumoniae AUCC 479 penS, macS” value in series [6] lay in the range of 0.03 to 0.06 µg/mL.

For the substance “(3aS,4R,7R,9R,10R,11R,13R,15R,15aR)-10-{[(2S,3R,4S,6R)-4-(dimethylamino)-3-hydroxy-6-methyloxan-2-yl]oxy}-4-ethyl-1-{[(2R)-1-ethylpyrrolidin-2-yl]methyl}-3a,7,9,11,13,15-hexamethyl-11-{[(2E)-3-(quinolin-3-yl)prop-2-en-1-yl]oxy}-tetradecahydro-1H-oxacyclotetradeca[4,3-d][1,3]oxazole-2,6,8,14-tetrone [Compound 13D]”, the “MIC Strep. Pneumoniae AUCC 488 penR” value in series [1] was 0.25 to 0.5 µg/mL. The “MIC Strep. Pneumoniae AUCC 489 penR, macR cMLS” value in series [2] fell in the range of 0.12 to 0.25 µg/mL. In series [3], the IC50 stood at 2.9 µM; the “CYP3A4 inhibition in comparison” value is “lower IC50 inhibition of CYP3A4 inhibition”. Besides, the “MIC Strep. Pneumoniae AUCC 483 penS, macR cMLS” value in series [4] is 0.25 to 0.5 µg/mL. Also, the “MIC Strep. Pneumoniae ATCC49619 QC strain” value in series [5] was in the range of 0.03 to 0.06 µg/mL. The “MIC Strep. Pneumoniae AUCC 479 penS, macS” value in series [6] was 0.015 to 0.03 µg/mL.

As to “(3aS,4R,7R,9R,10R,11R,13R,15R,15aR)-10-{[(2S,3R,4S,6R)-4-(dimethylamino)-3-hydroxy-6-methyloxan-2-yl]oxy}-4-ethyl-1-{[(2S)-1-ethylpyrrolidin-2-yl]methyl}-3a,7,9,11,13,15-hexamethyl-11-{[(2E)-3-(quinolin-3-yl)prop-2-en-1-yl]oxy}-tetradecahydro-1H-oxacyclotetradeca[4,3-d][1,3]oxazole-2,6,8,14-tetrone [Compound 13C]”, in series [1], the “MIC Strep. Pneumoniae AUCC 488 penR” value was 0.5 µg/mL. The “MIC Strep. Pneumoniae AUCC 489 penR, macR cMLS” value in series [2] lay within 0.5 to 1 µg/mL. Moreover, in series [3], the IC50 turned out to be 1.8 µM; the “CYP3A4 inhibition in comparison” value was “lower IC50 inhibition of CYP3A4 inhibition”. Besides, the “MIC Strep. Pneumoniae AUCC 483 penS, macR cMLS” value in series [4] lay within 0.5 to 1 µg/mL. Also, the “MIC Strep. Pneumoniae ATCC49619 QC strain” value in series [5] fell in the range of 0.06 to 0.12 µg/mL. Besides, the “MIC Strep. Pneumoniae AUCC 479 penS, macS” value in series [6] is 0.03 µg/mL.

Consider “(3aS,4R,7R,9R,10R,11R,13R,15R,15aR)-10-{[(2S,3R,4S,6R)-4-(dimethylamino)-3-hydroxy-6-methyloxan-2-yl]oxy}-4-ethyl-3a,7,9,11,13,15-hexamethyl-1-[2-(4-methylpiperazin-1-yl)ethyl]-11-{[(2E)-3-(quinolin-3-yl)prop-2-en-1-yl]oxy}-tetradecahydro-1H-oxacyclotetradeca[4,3-d][1,3]oxazole-2,6,8,14-tetrone [Compound 13K]”, for which the “MIC Strep. Pneumoniae AUCC 488 penR” value in series [1] amounted to 1 µg/mL. In addition, the “MIC Strep. Pneumoniae AUCC 489 penR, macR cMLS” value in series [2] was in the range of 0.5 to 1 µg/mL. Moreover, in series [3], the IC50 came out at 6.5 µM; the “CYP3A4 inhibition in comparison” value was “lower IC50 inhibition of CYP3A4 inhibition”. In addition, the “MIC Strep. Pneumoniae AUCC 483 penS, macR cMLS” value in series [4] fell in the range of 0.5 to 1 µg/mL. In addition, the “MIC Strep. Pneumoniae ATCC49619 QC strain” value in series [5] fell in the range of 0.06 to 0.12 µg/mL. The “MIC Strep. Pneumoniae AUCC 479 penS, macS” value in series [6] was 0.03 to 0.06 µg/mL.
